Measurements: publication PMC11491004, “CHF6523 data suggest that the phosphoinositide 3-kinase delta isoform is not a suitable target for the management of COPD” (Respiratory Research, 2024)

What was measured:
[1] = Safety and tolerability: adverse events; conditions: safety set N = 42
Method: Safety and tolerability were evaluated throughout the study in terms of the occurrence of adverse events, blood chemistry, haematology and urinalysis, vital signs, and 12-lead electrocardiograms. […] Throughout the study, patients were permitted to use salbutamol as rescue medication, but not within 6 h prior to any spirometry assessment – any rescue medication intake was also captured in the daily diary.
The safety set, used in the analysis of all safety variables, was all randomised patients who received at least one dose of study drug. […] Given the cross-over design, the inclusion of patients in the analysis sets was defined on a per-period basis.

[2] = system: target biomarkers in plasma; test: Target biomarkers in plasma; assay type: in vivo, human; conditions: p < 0.05
Method: (§1) All assessment timings were based on the morning dose. Pre-dose on Days 1 and 28 of each treatment period, blood samples were taken for pharmacokinetic analyses, followed by forced oscillation (including slow vital capacity manoeuvres for inspiratory capacity [IC] and vital capacity [VC]), spirometry (forced expiratory volume in 1 s [FEV1] and forced vital capacity [FVC]), and the COPD Assessment Test (CAT). Blood samples were also taken up to 12 h post-dose on Days 1 and 28 for pharmacokinetic analyses, with blood samples for biomarker assessment pre-dose on Day 1 and 2 h post-dose on Day 28, and spirometry pre-dose on Days 20 and 24. […]
(§2) Fold-change from baseline in cell counts, target biomarkers in sputum and blood, and PIP3 were log-transformed and analysed using an analysis of covariance (ANCOVA) model, with treatment, patient, and period as fixed effects, and baseline value as covariate. Changes from baseline in spirometry, forced oscillation and CAT endpoints were analysed using a similar ANCOVA model, but without log transformation. Rescue medication data were analysed using an analysis of variance model, including treatment, period and patient as fixed effects. […]

[3] = system: ion channels implicated in the cough reflex; test: Electrophysiology in-vitro examination; assay type: biochemical
proteins in sputum = test: Tandem mass tag mass spectrometry proteomics in sputum; assay type: in vivo, human; conditions: FDR < 0.05, mixed effect modelling
Method: Sputum samples were weighed and solubilised with sodium dodecyl sulphate and dithiothreitol, and were incubated for 10 min at 95°C. First, quantification was performed by the Bradford Assay, with 50 μg of each sample digested with Trypsin following the S-trap micro protocol; 25 μg of each sample was dried, and reconstituted with TMT10plex (Thermo Scientific) following the manufacturer’s instructions. The 98 samples were divided into eleven TMT10plexes groups; 10 μg of each sample were combined, taking into account the peptide quantification, and after combining samples were desalted.
Samples were analysed with a Thermo Scientific Dionex Ultimate 3000 nano RSLC coupled to a Orbitrap Fusion Lumos mass spectrometer (Thermo Scientific) fitted with nanoESI source. Peptides were separated on a EasySpray (75 µm x 500 mm, 2 μm, 100Å) (Thermo Scientific) heated to 40°C at 300 nL/min. The mass spectrometer was operated in data-dependent acquisition (DDA) mode. […] For the MS3 analyses for TMT quantification, multiple fragment ions from the previous MS2 scan (SPS ions) were co- selected and fragmented by HCD.
Database searches were performed with Proteome Discoverer v2.4 software (Thermo Scientific) using Sequest HT search engine and UniProt Homo Sapiens (2023) and contaminants. […] TMT reporter ions intensities were used for protein quantification. […]

[4] = system: target biomarkers in sputum; test: Target biomarkers of inflammation in induced sputum; assay type: in vivo, human; conditions: p < 0.05; with the exception of IL-5
Method: as §1, §2

SMILES: C[C@@H](c1oc(=O)c2ccccc2c1-c1cccc(CN2CCN(C)CC2)c1)n1nc(-c2cncc(O)c2)c2c(N)ncnc21 [CHF6523]
- Adverse events leading to death [1]: 0 Patients (%)
- Adverse events: COVID-19 [1]: 5 (11.9%) Patients (%)
- CHF6523–placebo differences in the target biomarkers in plasma [2]: no statistically significant
- Impact on ion channels implicated in the cough reflex [3]: no discernible impact
- Proteins significantly modulated by treatment, of the 413 evaluated (proteins in sputum): only BPI fold-containing family B member 1 (BPIFB1) was significantly modulated by treatment
- CHF6523–placebo differences in target biomarkers in sputum [4]: no statistically significant
